In US20030007996A1, “Therapies for the prevention and treatment of diabetes and obesity” (priority 2001, published 2003):

Key:
soleus muscle strips = experiment: 3-O-methyl glucose transport (3MGT) in incubated soleus muscle strips (Example 12); assay type: cell-based, rat; settings: for effect on 3MGT: 10 minute incubation
Experimental: Male Sprague-Dawley rats are used in all the following examples. Soleus muscle strips are incubated as described by Bonen et al (1992), Wilkes and Bonen (2000) and Bonen et al (1994) to determine glucose transport. Basal and insulin-stimulated 3-O-methyl glucose transport (3MGT) is examined in a dose dependent (0-10 nM) manner during a 10 minute incubation period in appropriate buffer (Bonen et al., 1994). Comparison of this dose-response relationship of insulin, and the A1 agonist CPA, and A2 agonist DPMA on 3MGT is conducted. 3MGT rates are linear for up to 20 minutes. The 10 minute period is therefore a convenient time point to acquire sufficient counts in the muscle at a reasonable cost of using radiolabelled 3MGT.
Optimal stimulating concentrations of insulin, CPA, and DPMA are established for 3MGT.

Akt = experiment: Signaling protein activation in isolated rodent muscles (Example 14); assay type: cell-based, rat
Experimental: Experiments with insulin, CPA and DPMA are performed in isolated muscles using optimal stimulating concentrations to determine which signaling proteins are activated. For this purpose, isolated rodent muscles are incubated with either basal or maximal insulin concentrations with and without either CPA or DPMA. Glucose transport is determined by 3MGT, measured over 10 minutes. The muscle samples are analyzed for IRTK, IRS-1 associated P13 kinase, p38 MAP kinase and Akt activities. The critical exposure time to activate signaling proteins is established in pilot work. […] Optimal exposure times required for signaling protein activation by CPA and DPMA are established. […] We establish that blocking P13-kinase with LY29004 blocks downstream activation of Akt by insulin, and by CPA and DPMA.

[1] = test system: A1 and A2 adenosine receptors; experiment: Adenosine receptor-stimulated adenylate cyclase activity (cAMP) in skeletal muscle homogenates (Example 4); assay type: biochemical, rat
Experimental: The purpose of this study was to investigate the presence of A1 and A2 adenosine receptors (AR) in rat and human skeletal muscle. Adenosine receptor-stimulated adenylate cyclase activity studies were conducted to determine cAMP responses in the presence of AR agonists using rat skeletal muscle homogenates. Subsequently, Western blotting experiments were conducted to identify the A1 and A2 receptor proteins in rodent and human skeletal muscle samples. […] There was little effect of R-PIA (an A1 AR agonist) on cAMP levels in any fiber type. […] A2a expression was highest in the liver compared to muscle and heart homogenates.

young type 1 diabetics = experiment: Caffeine followed by high glycemic index cereal in type 1 diabetics (Example 18); assay type: in vivo, human
Experimental: Young type 1 diabetics (5 females and 1 male) who had been diagnosed for an average of 8.3±5.4 years volunteered to perform two trials in a randomized, double blind study design. Subjects were given either placebo or caffeine-containing (5 mg/kg) capsules and 30 minutes later they self-administered the appropriate amount of insulin for the ingestion of 60 g of carbohydrates in the form of a high glycemic cereal with 125 ml of 1% milk. The amount of self-administered insulin and injection site were the same for both trials. Venous blood glucose was measured prior to capsule ingestion, prior to insulin injection, and immediately following ingestion of the cereal meal (t=0 minutes). Blood glucose was then measured every 15 minutes for the next 2.5 hours.

[2] = test system: obese and Type 2 diabetic males; experiment: OGTT with and without caffeine in lean, obese and Type 2 diabetic males (Example 8); assay type: in vivo, human
Excerpt: The results will be compared to the current data base; containing data (28,40) collected in an identical fashion for 30 lean (BMI of less than 25) males age 18-30 years. Lean subjects have BMI of less than 25, the obese are class I (BMI 30-34), abdominal obese (waist circumference>100 cm) and the diabetics have the same anthropometry. The diabetics are volunteers who have been well controlled for a year, with glycosylated hemoglobin levels between 6.5-9.5% for at least three months. They have similar levels of obesity, are not insulin-dependent, and are not on oral hypoglycemic agents, but rather diet-controlled. Their participation is medically approved and they are screened for hypertension and angina. The area under the curve for insulin and C-peptide is greater for the obese and even greater for the diabetic subjects. […] Data also includes plasma catecholamines, methylxanthines, FFA, and glycerol.

[3] = test system: obese (BMI=30-38 kg/m2) men; experiment: OGTT after caffeine before and after a weight loss program (Example 6); assay type: in vivo, human
[4] = test system: young, sedentary, obese males; experiment: OGTT after caffeine in obese, resting males (Example 7); assay type: in vivo, human; settings: p<0.05
[5] = test system: obese type 2 diabetic males; experiment: OGTT with and without caffeine in obese type 2 diabetic males (Example 19); assay type: in vivo, human
healthy male subjects = experiment: OGTT after alkaloid caffeine, caffeinated coffee, decaffeinated coffee or placebo (Example 3); assay type: in vivo, human; settings: two hours of the OGTT; n=10
Experimental: (§1) The methods and materials employed in this invention are common to those skilled in the art. The methods and materials for the hyperinsulinemic euglycemic glucose clamp test are found in Greer et al., 2001. The methods and materials for the oral glucose tolerance test (OGTT) are described in Graham et al., 2001.
Venous blood samples were taken at −30, 0 (treatment given), 60 (OGTT administered), 75, 90, 120, 150 and 180 minutes and were analyzed for glucose, insulin, C peptide, glycerol, free fatty acids and lactate. Area under the curve (AUC) were calculated for the two hours of the OGTT. […] This component acts as an adenosine receptor […].

young, fit, adult males = experiment: Oral glucose tolerance test (OGTT) after caffeine ingestion in lean males (Example 2); assay type: in vivo, human
Excerpt: as §1
Young, fit, adult males (n=18) underwent two oral glucose tolerance tests (OGTT). […] Following the OGTT all of these parameters increased (p≦0.05) for the duration of the OGTT. […] During the OGTT these decreased to match those of the placebo trial. […] The data support the hypothesis that caffeine ingestion impairs glucose disposal.

[6] = test system: obese (BMI>30) nondiabetic males; experiment: OGTT after caffeine ingestion in obese nondiabetic males (Example 5); assay type: in vivo, human; settings: obese males (n=4)
lean sedentary males = experiment: Hyperinsulinemic euglycemic clamp after caffeine ingestion (Example 1); assay type: in vivo, human
Experimental: as §1
Trials were separated by one week. Prior to each clamp session, subjects withdrew from methylxanthine containing products for 48 hours.

[7] = caffeine 5 mg/kg 1 h before 75 g dextrose, p≦0.05
[8] = last 90 minutes of the OGTT, p≦0.05

Which results are given for `O=c1cc(N2CCOCC2)oc2c(-c3ccccc3)cccc12` [LY29004]?
effect on CPA- and DPMA-induced increases in 3MGT (soleus muscle strips): inhibited; effect on insulin stimulated 3MGT (soleus muscle strips): inhibited; effect on downstream activation of Akt by insulin, and by CPA and DPMA (Akt): blocks

With `CCNC(=O)[C@H]1O[C@@H](n2cnc3c(N)ncnc32)[C@H](O)[C@@H]1O` [NECA] as the compound, how does the “effect on cAMP production” value ([1]; glycolytic samples) read?
The value was “no effect”.

And the “increase in cAMP production” value ([1]; rat oxidative muscle homogenates)?
The value was 7.5 fold.

Which “effect on 3MGT” value (soleus muscle strips) does the source give for `COc1cc(OC)cc(C(CNc2ncnc3c2ncn3[C@@H]2O[C@H](CO)[C@@H](O)[C@H]2O)c2ccccc2C)c1` (stereo partly shown) [DPMA, N-[2-(3,5-dimethoxy-phenyl)-2-(2-methylphenyl)ethyl]-adenosine] here?
The value was “increases”.

For `Cn1c(=O)c2c(ncn2C)n(C)c1=O` [caffeine], which “difference in the glucose area under the curve, caffeine vs placebo” value (young type 1 diabetics; caffeine 5 mg/kg) is on record?
The value was 72%.

And the “glucose area under the curve” value (young type 1 diabetics; caffeine 5 mg/kg capsules, placebo 347±7.4, p<0.01)?
Its value is 598±7.4 mM/2.5 h.

And the “area under the curves for insulin and C-peptide following caffeine ingestion” value ([2]; lean subjects)?
Its value is “increased”.

What about the “area under the curves for insulin and C-peptide following caffeine ingestion” value ([2]; obese and diabetic subjects, relative to lean) of the same compound?
The value was “even greater response”.

And the “increase in insulin during the OGTT compared to placebo” value ([3]; following the twelve week intervention, p=0.056)?
The value was “greater”.

And the “blood glucose vs placebo” value ([3]; prior to the twelve week intervention)?
Its value is “no differences”.

What about the “insulin response during the OGTT vs placebo” value ([3]; prior to the twelve week intervention, caffeine 5 mg/kg, p=0.043) of the same compound?
The value was “greater”.

And the “glucose area under the curve during the OGTT” value ([4]; caffeine 5 mg/kg, n=28, placebo 188.5)?
Its value is 260.1 mM/2h.

And the “insulin area under the curve during the OGTT” value ([4]; caffeine 5 mg/kg, n=28, placebo 7037.9)?
Its value is 9455.8 uIU/ml/2h.

And the “glucose level vs placebo” value ([4]; last 90 minutes of the OGTT)?
The value was “significantly greater”.

And the “insulin level vs placebo” value ([4]; last 105 minutes of the OGTT)?
The value was “significantly greater”.

And the blood glucose ([5]; 180 minutes following ingestion of the OGTT, caffeine 5 mg/kg, placebo 7.4±1.0)?
Its blood glucose is 8.4 ± 0.8 mM.

What about the “blood glucose compared with placebo” value ([5]; last hour of the OGTT (120 to 180 minutes), p<0.05) of the same compound?
The value was “significantly elevated”.

What about the “AUC for glucose, comparison between treatments” value (healthy male subjects) of the same compound?
Its value is “higher than both CC (p<0.04) and DC (p<0.01)”.

What about the “AUC for insulin, comparison between treatments” value (healthy male subjects) of the same compound?
Its value is “higher AUC for insulin (see FIG. 5) than both PL (p<0.002) and DC (p<0.001)”.

What about the “AUC for peptide C, comparison between treatments” value (healthy male subjects) of the same compound?
The value was “higher values than both PL (p<0.02) and DC (p<0.001)”.

And the “serum fatty acids, glycerol and plasma epinephrine” value (young, fit, adult males; after caffeine ingestion, before OGTT, p≦0.05)?
Its value is “increase”.

What about the “serum C peptide area under the curve, greater than placebo” value (young, fit, adult males; [7]) of the same compound?
Its value is 37%.

What about the “serum insulin area under the curve, greater than placebo” value (young, fit, adult males; [7]) of the same compound?
Its value is 60%.

And the “blood glucose level vs placebo” value (young, fit, adult males; during OGTT)?
The value was “no differences between trials”.

What about the “serum C peptide concentration vs placebo” value (young, fit, adult males; [8]) of the same compound?
The value was “significantly greater”.

What about the “serum insulin concentration vs placebo” value (young, fit, adult males; [8]) of the same compound?
Its value is “significantly greater”.

What about the “AUC for GLU” value (young, fit, adult males; lean males (n=18), OGTT) of the same compound?
Its value is 168 mM/2 h.

What about the “insulin AUC” value (young, fit, adult males; lean males (n=18), OGTT, placebo 3274) of the same compound?
The value was 5242 uU/ml/2h.

What about the “AUC for GLU” value [6] of the same compound?
The value was 167 mM/2 h.

And the “insulin AUC” value ([6]; placebo 6938)?
The value was 10,968 uU/ml/2 h.

What about the “decrease in carbohydrate storage compared to placebo” value (lean sedentary males; caffeine 5 mg/kg) of the same compound?
The value was 35%.

And the “decrease in glucose disposal” value (lean sedentary males; caffeine 5 mg/kg vs placebo)?
Its value is 24%.

And the glucose disposal (lean sedentary males; caffeine 5 mg/kg, placebo 8.42+/−0.63, n=9)?
Its glucose disposal is 6.38 ± 0.76 mg/kg/min.

With `C[C@H](Cc1ccccc1)Nc1ncnc2c1ncn2[C@@H]1O[C@H](CO)[C@@H](O)[C@H]1O` [R-PIA] as the compound, how does the “effect on cAMP levels” value ([1]; any fiber type) read?
Its value is “little effect”.

With `OC[C@H]1O[C@@H](n2cnc3c(NC4CCCC4)ncnc32)[C@H](O)[C@@H]1O` [CPA, N6-cyclopentyladenosine] as the compound, how does the “effect on 3MGT” value (soleus muscle strips) read?
The value was “increases”.
